Measurements taken from patent publication US4937237A, “Phosphinic acid substituted aromatic steroids as inhibitors of steroid 5-60 -reductase” (SmithKline Beckman Corporation, priority 1988, dated 1990).
Like-named read-outs stand apart in the source and are kept apart here.

Experiments:
[1] = target: 5-α-Reductase; conditions: cited from earlier work; for Ki / Reversibility of inhibition (with Ki): Table I; for Type of inhibition of steroid 5-α-reductase, in words: literature
[2] = system: human steroid 5-α-reductase; conditions: substrate (testosterone), separate experiment
[3] = target: T1, human steroid 5-α-reductase (Homo sapiens, UniProt P31213); experiment: Potency in inhibiting human steroid 5-α-reductase from hyperplastic human prostates ([14C]-testosterone conversion, Dixon plot); assay type: biochemical
T1 construct: Frozen human prostates were thawed and minced into small pieces; from tissue; host or cells: hyperplastic human prostate, 140,000×g particulate fraction
T1 sequence (P31213 1-254): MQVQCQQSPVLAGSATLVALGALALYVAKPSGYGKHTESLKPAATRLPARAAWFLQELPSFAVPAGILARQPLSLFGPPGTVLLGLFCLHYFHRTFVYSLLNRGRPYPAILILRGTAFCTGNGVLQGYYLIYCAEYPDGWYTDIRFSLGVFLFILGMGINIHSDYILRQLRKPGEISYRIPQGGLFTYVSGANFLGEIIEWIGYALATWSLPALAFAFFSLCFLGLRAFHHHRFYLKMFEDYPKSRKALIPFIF
Experimental: A compound of the invention, 17β-(N,N-diisopropylcarboxamide)-estr-1,3,5(10)-triene-3-phosphinic acid, was tested for potency in inhibiting human steroid 5-α-reductase using tissue from hyperplastic human prostates. In determining potency in inhibiting the human enzyme, the following procedure was employed:
Frozen human prostates were thawed and minced into small pieces (5 mm^3). The tissue was homogenized in 3 to 5 volumes of 20 mM potassium phosphate buffer, pH 6.5, containing 0.33M sucrose, 1 mM dithiothreitol, and 50 μM NADPH with a Brinkmann Polytron (Sybron Corporation, Westbury, N.Y.). The solution was subjected to sonication for 3 to 5 minutes with a Sonifier (Branson Sonic Power Co.) followed by hand homogenization in a glass-to-glass Dounce homogenizer (Kontes Glass Company, Vineland, N.J.). […]
A constant amount of [^14 C]-testosterone (52 to 55 mCi/mmol, New England Nuclear, Boston, MA) in ethanol and varying amounts of the potential inhibitor in ethanol were deposited in test tubes and concentrated to dryness in a SAVANT Speed Vac. […] The radiochemical content in the bands of the substrate and the products was determined with a BIOSCAN Imaging Scanner (Bioscan, Inc., Washington, D.C.). The percent of recovered radiolabel converted to product was calculated, from which enzyme activity was determined. […]

| Compound | Ki ([1]; literature references) | Reversibility of inhibition (with Ki) ([1]; literature references) | also measured |
| --- | --- | --- | --- |
| C[C@]12CC[C@H]3[C@@H](CCC4=CC(=O)CC[C@@]43C)[C@@H]1CC[C@@H]2C(=O)O [(1)] | 1100 nM | Reversible | – |
| C[C@]12CC[C@H]3[C@@H](CCC4=CC(=O)CC[C@@]43C)[C@@H]1CC[C@@H]2O [testosterone] | – | – | Km [2]: 4.5 µM |
| CCN(CC)C(=O)[C@H]1CC[C@H]2[C@@H]3CC[C@H]4N(C)C(=O)CC[C@]4(C)[C@H]3CC[C@]12C [(4)] | 5 nM | Reversible | – |
| C=C1C[C@@H]2[C@H](CC[C@@]3(C)[C@H]2CC[C@]3(OC(C)=O)C(C)=O)[C@@]2(C)CCC(=O)C=C12 [(5)] | 1250 nM | Irreversible | Type of inhibition of steroid 5-α-reductase, in words [1]: time-dependent inactivator |
| CC(=O)C1CCC2C3CC=C=CC(=O)CCC(=O)C3CCC12C (stereo not drawn) [(2)] | 1000 nM | Irreversible | – |
| CC(C)N(C(=O)[C@H]1CC[C@H]2[C@@H]3CCc4cc([PH](=O)O)ccc4[C@H]3CC[C@]12C)C(C)C [17β-(N,N-Diisopropylcarboxamide)-estr-1,3,5(10)-triene-3-phosphinic Acid] | – | – | Ki [3]: 13 nM; Potency as inhibitor of human steroid 5-α-reductase, in words ([3]; concluded from low Ki): potent inhibitor |
| CC(CO)[C@H]1CC[C@H]2[C@@H]3CC[C@H]4C(=[N+]=[N-])C(=O)CC[C@]4(C)[C@H]3CC[C@]12C (stereo partly drawn) [(3)] | – | Irreversible | Ki ([1]; literature reference, unit inferred): 35 nM; Type of inhibition of steroid 5-α-reductase, in words [1]: potent, time-dependent inhibitor |
